Measurements taken from patent publication EP0083204A2, “2-Aminophenol derivatives and process for their preparation” (ONO PHARMACEUTICAL CO., LTD., priority 1981, dated 1983).
Where a name gives a salt, the structure may show the parent alone.

Experiments:
5-lipoxygenase [1] = target: T1, 5-lipoxygenase (Cavia porcellus, UniProt A0A286X958); assay: assay system evaluating only the inhibitory activity on 5-lipoxygenase (105,000 x g supernate of sonicated polymorphonuclear leukocytes); assay type: biochemical; conditions: supernate of sonicated guinea pig polymorphonuclear leukocytes, 30°C, 5 minutes, 1 mM calcium chloride; production of 5-HETE, 5,12-diHETE and leukotriene B; read-out: concentrations required to produce 50% inhibitions on 5-lipoxygenase
T1 construct: The supernate was used as an enzyme throughout this work; from tissue; host or cells: 105,000 x g supernatant of sonicated, casein-elicited guinea pig polymorphonuclear leukocytes
T1 sequence (A0A286X958 1-674): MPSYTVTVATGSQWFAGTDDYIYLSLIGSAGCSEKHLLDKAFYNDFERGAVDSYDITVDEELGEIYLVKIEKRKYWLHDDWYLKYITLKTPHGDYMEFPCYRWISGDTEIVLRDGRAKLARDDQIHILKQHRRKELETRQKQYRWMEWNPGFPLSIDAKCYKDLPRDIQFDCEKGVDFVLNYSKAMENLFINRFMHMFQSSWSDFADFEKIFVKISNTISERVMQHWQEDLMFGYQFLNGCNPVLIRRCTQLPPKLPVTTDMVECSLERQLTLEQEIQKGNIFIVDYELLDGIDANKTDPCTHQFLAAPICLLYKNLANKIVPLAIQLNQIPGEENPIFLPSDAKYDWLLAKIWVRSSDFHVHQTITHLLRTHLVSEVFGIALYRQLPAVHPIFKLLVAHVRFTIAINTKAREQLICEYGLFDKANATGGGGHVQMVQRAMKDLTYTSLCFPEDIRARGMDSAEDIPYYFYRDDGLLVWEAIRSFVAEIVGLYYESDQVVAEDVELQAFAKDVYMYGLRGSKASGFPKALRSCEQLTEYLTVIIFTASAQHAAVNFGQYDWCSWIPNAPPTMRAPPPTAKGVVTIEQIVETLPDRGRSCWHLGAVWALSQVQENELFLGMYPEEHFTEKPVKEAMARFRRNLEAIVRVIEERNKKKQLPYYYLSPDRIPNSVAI
Procedure: The experiments for evaluating only the inhibitory activity on 5-lipoxygenase were carried out as follows: Guinea pig was treated by casein and harvested polymorphonuclear leukocytes from cavity were sonicated, followed by the centrifugation at 105,000 x g. The supernate was used as an enzyme throughout this work. The supernate (100 - 500 ug of protein) was incubated for 5 minutes at 30°C with [^14C] arachidonic acid and 1 mM calcium chloride in the presence or in the absence of test compound. The reaction was terminated by the addition of ether. Ether extract was separated by thin layer chromatography using silica gel plates to observe production of 5-HETE, 5,12-diHETE and leukotriene B. In this assay system, the concentrations for 50% inhibitions on 5- lipoxygenase were evaluated by using the concentrations of compounds of the present invention required 50% inhibitions on the production of 5-HETE, 5,12-diHETE and leukotrien B.

mice = assay: acute toxicity by intravenous administration; assay type: in vivo, mouse; conditions: intravenously administered to tail vein in ten mice at the dose of 30 mg/kg
Procedure: On the other hand, all extent of the compounds of the present invention were confirmed that their acute toxicities were more than 30 mg/kg by intravenous administration. Therefore, 2-aminophenol derivatives of the present invention may be considered to be sufficiently safe and suitable for medical use.

cyclooxygenase = assay: standard assay system using polymorphonuclear leukocytes (production of HHT or TXB2 from [14C] arachidonic acid); assay type: cell-based; conditions: intact polymorphonuclear leukocytes from guinea pig, 4 x 10^7 cells, 37°C, 5 minutes, read-out: concentrations for 50% inhibitions on cyclooxygenase
Procedure: (§1) For example, in standard assay system using polymorphonuclear leukocytes from guinea pig (details of experiments were described hereafter), (a) the concentrations of 2-amino-4-(4-methylphenylthio)phenol hydrochloride for 50% inhibitions on 5-lipoxygenase and on cyclooxygenase were 0.2 µM and 0.3 µM, respectively, (b) the concentrations of 2-amino-4-phenylthiophenol hydrochloride for 50% inhibitions on 5- lipoxygenase and on cyclooxygenase were 0.1 µM and 0.3 uM, respectively and (c) the concentrations of 2-amino-4-(4-chlorophenylthio)phenol hydrochloride for 50% inhibitions on 5-lipoxygenase and on cyclooxygenase were 0.5 µM and 0.3 µM, respectively. Therefore, it is comfirmed that these compounds (a), (b) and (c) inhibit both 5-lipoxygenase and cyclooxygenase at the same time at very low concentrations.
(§2) The experiments for screening using polymorphonuclear leukocytes were carried out as follows: The reaction mixture (0.1 ml) containing 5 µmole of potassium phosphate at pH 7.4, 0.1 µmole of calcium chloride, polymorphonuclear leukocytes prepared from guinea pigs (4 x 10^7 cells) and test compound, was preincubated for 5 minutes at 37°C. The reaction was started by the addition of [^14C] arachidonic acid ([…] dpm, 1.8 nmole), followed by the incubation at 37°C for 5 minutes. The reaction was terminated by the addition of 0.3 ml of a mixture of ether/ methanol/lM citric acid (30/4/1). The organic phase (20 µl) was applied to silica gel plate. Thin layer chromatography was performed to separate each product with solvent system of ether/petroleum ether/acetic acid (85/15/0.1).
(§3) Activity of 5-lipoxygenase and cyclooxygenase were calculated from the measurements of the production of 5-HETE, and 12L-hydroxy-5,8,10-[…] acid (i.e. HHT) or thromboxane B2 (i.e. TXB2), respectively [it has been known that HHT and TXB2 are the last products of the system concerning cyclooxygenase in the arachidonate cascade]. […]

5-lipoxygenase [2] = target: T1, 5-lipoxygenase; assay: standard assay system using polymorphonuclear leukocytes (production of 5-HETE from [14C] arachidonic acid); assay type: cell-based; conditions: intact polymorphonuclear leukocytes from guinea pig, 4 x 10^7 cells, 37°C, 5 minutes, read-out: concentrations for 50% inhibitions on 5-lipoxygenase
Procedure: as §1, §2, §3

Nc1cc([S+]([O-])c2ccccc2)ccc1O (stereo not drawn) [2-amino-4-benzenesulfinylphenol, 2-Amino-4-benzenesulfinylphenol]
IC50 (5-lipoxygenase [1]): 11 µM

Cc1cc(C)c(Sc2ccc(O)c(N)c2)c(C)c1 [2-Amino-4-(2,4,6-trimethylphenylthio)phenol hydrochloride]
IC50 (5-lipoxygenase [1]): 0.48 µM

Nc1cc(Sc2ccc(O)cc2)ccc1O [2-amino-4-(4-hydroxyphenylthio)phenol, 2-Amino-4-(4-hydroxyphenylthio)phenol]
IC50 (5-lipoxygenase [1]): 0.46 µM

Nc1cc(Sc2ccccc2)ccc1O [2-amino-4-phenylthiophenol hydrochloride, 2-Amino-4-phenylthiophenol hydrochloride]
mortality (mice): no mouse was dead | IC50 (5-lipoxygenase [1]): 0.31 µM | IC50 (cyclooxygenase): 0.3 µM | IC50 (5-lipoxygenase [2]): 0.1 µM

Nc1cc(Sc2ccc(O)c(N)c2)ccc1O [2-Amino-4-(3-amino-4-hydroxyphenylthio)phenol]
IC50 (5-lipoxygenase [1]): 1.5 µM

CC(C)(C)c1ccc(Sc2ccc(O)c(N)c2)cc1 [2-Amino-4-(4-tert-butylphenylthio)phenol hydrochloride]
IC50 (5-lipoxygenase [1]): 0.32 µM

Nc1cc(C#Cc2ccccc2)ccc1O [2-amino-4-phenylethynylphenol, 2-Amino-4-phenylethynylphenol]
mortality (mice): no mouse was dead | IC50 (5-lipoxygenase [1]): 0.69 µM

Nc1cc(Sc2ccc(Cl)cc2)ccc1O [2-Amino-4-(4-chlorophenylthio)phenol hydrochloride]
IC50 (5-lipoxygenase [1]): 0.3 µM | IC50 (cyclooxygenase): 0.3 µM | IC50 (5-lipoxygenase [2]): 0.5 µM

Nc1cc(NC(=O)c2ccccc2)ccc1O [N-(3-Amino-4-hydroxyphenyl)benzamide hydrochloride]
IC50 (5-lipoxygenase [1]): 18 µM

Cl.Nc1cc(-c2nc3ccccc3s2)ccc1O [2-Amino-4-(2-benzothiazolyl)phenol hydrochloride]
mortality (mice): no mouse was dead | IC50 (5-lipoxygenase [1]): 0.23 µM

Cc1ccc(Sc2ccc(O)c(N)c2)cc1.Cl [2-Amino-4-(4-methylphenylthio)phenol hydrochloride]
mortality (mice): no mouse was dead | IC50 (5-lipoxygenase [1]): 0.2 µM | IC50 (cyclooxygenase): 0.3 µM | IC50 (5-lipoxygenase [2]): 0.2 µM
